Experimental data published in ChEMBL document CHEMBL3397010, “Design, synthesis, and biological evaluation of air-stable nafuredin-γ analogs as complex I inhibitors” (Bioorg Med Chem, 2015).

Test: Inhibition of electron transport protein complex 1 in Ascaris suum mitochondria assessed as reduction in rhodoquinol-fumarate reductase activity by measuring NADH oxidation using NADH, sodium fumarate and decyl-rhodoquinone

Compound	IC50 [µM]
CC(C)=CCC/C(C)=C/CC/C(C)=C/CC[C@@H](O)[C@]1(C)CCC(=O)O1	0.82
C/C(=C\CCC(C)C)CCCC/C=C/[C@@H](O)[C@]1(C)CCC(=O)O1	0.34
C/C(=C\CCC(C)C)C[C@@H](C)CC/C=C/[C@@H](O)[C@]1(C)CCC(=O)O1	0.3
CC[C@H](C)CC/C=C(\C)C[C@@H](C)CC/C=C/[C@@H](O)[C@]1(C)CCC(=O)O1	0.55
CCc1ccc2ccc(Cc3cccc(/C=C/[C@@H](O)[C@]4(C)CCC(=O)O4)c3)cc2c1	0.55
CC[C@H](C)/C=C/C=C(\C)C[C@@H](C)/C=C/C=C/[C@@H](O)[C@]1(C)C=C(O)C(=O)O1	0.006
CC(C)=CCC/C(C)=C/CC/C(C)=C/CC[C@@H](O)[C@]1(C)CCCO1	0.5
